Reference: article PMC10497752, “Heparins are potent inhibitors of ectonucleotide pyrophosphatase/phospho-diesterase-1 (NPP1) – a promising target for the immunotherapy of cancer” (Frontiers in Immunology, 2023)

Tested on: human CD4+ T cells
Assay: Induced Treg differentiation assay
Type: cell-based
Conditions: U87 cells preincubated with 20 µM ATP plus heparin; supernatant added to CD4+ T cells, day 5 flow cytometry
Description: Human CD4^+ T cells were extracted from buffy coats by positive selection using the StraightFrom™ Buffy Coat CD4 MicroBead Kit (Miltenyi Biotec, Bergisch Gladbach, Germany). CD4^+ T cells were stimulated by ImmunoCult™ Human CD3/CD28/CD2 T Cell Activator at day 1. At days 1 and 3, the indicated compounds or U87 cell supernatant, either of untreated or of heparin-treated cells were added to CD4^+ T cells. Cells were harvested at day 5 and were investigated for CD25 and FoxP3 expression. Therefore, cells were washed once with staining buffer (1% BSA, 0.01% NaN3 in PBS). To avoid nonspecific binding, cells were blocked for 15 min with 3% BSA in PBS. Anti-CD25 antibody (PerCP/Cyanine5.5 anti-human CD25 antibody, RRID : AB_2125478, BioLegend Inc, San Diego, CA, USA) was added and the cells were incubated for 30 min in the dark. Subsequently, cells were washed once with staining buffer and fixed in 150 µL of fixation buffer (3% paraformaldehyde (PFA), 0.1% saponin, and 0.5% Tween-20 in Dulbecco's phosphate-buffered saline) for 30 min at 4°C. […] Samples were measured in triplicates using the Guava® easyCyte HT Flow Cytometer (Merck Millipore, Billerica, MA, USA). Compensation and FMO (fluorescence minus one) controls were conducted. […] Data were evaluated using the FlowJo™ v10.5.3 Software (RRID : SCR_008520, BD Life Sciences, Franklin Lakes, NJ, USA) and Graphpad PRISM 8.4.0.

## CO[C@H]1O[C@H](COS(=O)(=O)O)[C@@H](O[C@@H]2O[C@@H](C(=O)O)[C@@H](O[C@H]3O[C@H](COS(=O)(=O)O)[C@@H](O[C@@H]4O[C@H](C(=O)O)[C@@H](O[C@H]5O[C@H](COS(=O)(=O)O)[C@@H](O)[C@H](O)[C@H]5NS(=O)(=O)O)[C@H](O)[C@H]4O)[C@H](OS(=O)(=O)O)[C@H]3NS(=O)(=O)O)[C@H](O)[C@H]2OS(=O)(=O)O)[C@H](O)[C@H]1NS(=O)(=O)O [Compound 6, Fondaparinux]
  Treg formation (CD25/FoxP3 positive cells) induced by supernatant of ATP-treated U87 cells: reduced Treg formation even below that of the control cells
